Experimental data from patent US6555341B1, “Human theta subunit of the GABAa receptor” (Merck Sharp & Dohme Ltd., priority 1997, dated 2003).

Columns and labels:
[1] = molecular target: T1, GABAA receptor subunit combination α2β1θγ1 (Homo sapiens, UniProt P18505+P47869+Q9UN88); assay: Whole cell patch-clamp of HEK 293 cells transiently transfected with human GABA-A receptors, GABA concentration-response; assay type: cell-based; settings: HEK 293 cells transiently expressing α2β1θγ1; GABA concentration-response curve
T1 construct: expressed in transfected cells; host or cells: HEK 293 cells, transient, calcium phosphate precipitation
Experimental: (§1) Experiments were performed on HEK 293 cells transiently transfected with human cDNA combinations α2β1 γ1, and α2β1θγ1 (4 μgs of cDNA total per cover-slip) using calcium phosphate precipitation (Chen and Okayama, 1988) as previously described (Hadingham et al, 1993). Glass cover-slips containing the cells in a monolayer culture were transferred to a perspex chamber on the stage of Nikon Diaphot inverted microscope. Cells were continuously perfused with a solution containing 124 mM NaCl, 2 mM KCl, 2 mM CaCl2, 1 mM MgCl2, 1.25 mM KH2PO4, 25 mM NaHCO3, 11 mM D-glucose, at pH 7.2, and observed using phase-contrast optics. Patch-pipettes were pulled with an approximate tip diameter of 2 μm and a resistance of 4MΩ with borosilicate glass and filled with 130 mM CsCl, 10 mM HEPES, 10 mM EGTA, 3 mM Mg^+-ATP, pH adjusted to 7.3 with CsOH. Cells were patch-clamped in whole-cell mode using an Axopatch 200B patch-clamp amplifier. Drug solutions were applied by a double-barrelled pipette assembly, controlled by a stepping motor attached to a Prior manipulator, enabling rapid equilibration around the cell. […] Curves were fitted using a non-linear square-fitting program to the equation f(x)=BMAX/[1+(EC50/x)^n] where x is the drug concentration, EC50 is the concentration of drug eliciting a half-maximal response and n is the Hill coefficient. EC50's were analysed by unpaired students t-test.

[2] = molecular target: T2, GABAA receptor subunit combination α2β1γ1 (Homo sapiens, UniProt P18505+P47869); assay: as above; assay type: cell-based; settings: HEK 293 cells transiently expressing α2β1γ1; GABA concentration-response curve
T2 construct: expressed in transfected cells; host or cells: HEK 293 cells, transient, calcium phosphate precipitation
T2 sequence (P47869 29-451): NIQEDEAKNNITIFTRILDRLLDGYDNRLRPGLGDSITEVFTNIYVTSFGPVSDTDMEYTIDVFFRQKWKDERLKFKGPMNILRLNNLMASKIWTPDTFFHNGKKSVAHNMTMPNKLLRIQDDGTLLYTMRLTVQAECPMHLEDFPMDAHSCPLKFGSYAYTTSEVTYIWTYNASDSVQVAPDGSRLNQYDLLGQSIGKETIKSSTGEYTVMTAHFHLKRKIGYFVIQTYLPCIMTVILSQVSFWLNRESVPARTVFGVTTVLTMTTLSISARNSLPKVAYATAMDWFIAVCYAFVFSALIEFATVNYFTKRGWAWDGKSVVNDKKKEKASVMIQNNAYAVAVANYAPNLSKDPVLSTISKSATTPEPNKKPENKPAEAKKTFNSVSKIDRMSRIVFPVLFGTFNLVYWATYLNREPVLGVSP
T2 sequence (P18505 26-474): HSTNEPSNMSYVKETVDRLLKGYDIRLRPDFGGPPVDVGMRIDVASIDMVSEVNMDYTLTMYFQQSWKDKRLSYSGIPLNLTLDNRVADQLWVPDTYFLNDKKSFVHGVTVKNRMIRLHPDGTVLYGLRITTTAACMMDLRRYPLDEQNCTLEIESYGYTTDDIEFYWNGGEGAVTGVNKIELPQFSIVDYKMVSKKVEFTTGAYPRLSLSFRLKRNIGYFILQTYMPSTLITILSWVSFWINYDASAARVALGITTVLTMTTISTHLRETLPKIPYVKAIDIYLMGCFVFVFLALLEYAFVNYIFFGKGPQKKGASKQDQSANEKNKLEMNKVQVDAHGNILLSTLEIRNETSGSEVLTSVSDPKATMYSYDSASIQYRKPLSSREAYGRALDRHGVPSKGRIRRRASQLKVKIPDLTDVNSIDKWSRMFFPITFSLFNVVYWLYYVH
T2 sequence (Q8N1C3 36-465 partner): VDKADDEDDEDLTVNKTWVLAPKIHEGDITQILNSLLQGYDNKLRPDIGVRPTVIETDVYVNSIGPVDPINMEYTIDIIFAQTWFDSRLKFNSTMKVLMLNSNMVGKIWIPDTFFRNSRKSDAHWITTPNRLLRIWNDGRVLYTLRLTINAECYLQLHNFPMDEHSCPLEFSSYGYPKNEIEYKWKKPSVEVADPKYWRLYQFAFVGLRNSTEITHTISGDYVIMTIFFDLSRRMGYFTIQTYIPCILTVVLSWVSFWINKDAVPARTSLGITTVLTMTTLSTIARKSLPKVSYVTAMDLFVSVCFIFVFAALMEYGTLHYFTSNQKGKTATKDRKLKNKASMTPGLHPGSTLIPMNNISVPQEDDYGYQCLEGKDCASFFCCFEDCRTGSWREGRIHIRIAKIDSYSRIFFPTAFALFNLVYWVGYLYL
Experimental: as §1

T1 sequence (Q9UN88 22-632, one chain of several): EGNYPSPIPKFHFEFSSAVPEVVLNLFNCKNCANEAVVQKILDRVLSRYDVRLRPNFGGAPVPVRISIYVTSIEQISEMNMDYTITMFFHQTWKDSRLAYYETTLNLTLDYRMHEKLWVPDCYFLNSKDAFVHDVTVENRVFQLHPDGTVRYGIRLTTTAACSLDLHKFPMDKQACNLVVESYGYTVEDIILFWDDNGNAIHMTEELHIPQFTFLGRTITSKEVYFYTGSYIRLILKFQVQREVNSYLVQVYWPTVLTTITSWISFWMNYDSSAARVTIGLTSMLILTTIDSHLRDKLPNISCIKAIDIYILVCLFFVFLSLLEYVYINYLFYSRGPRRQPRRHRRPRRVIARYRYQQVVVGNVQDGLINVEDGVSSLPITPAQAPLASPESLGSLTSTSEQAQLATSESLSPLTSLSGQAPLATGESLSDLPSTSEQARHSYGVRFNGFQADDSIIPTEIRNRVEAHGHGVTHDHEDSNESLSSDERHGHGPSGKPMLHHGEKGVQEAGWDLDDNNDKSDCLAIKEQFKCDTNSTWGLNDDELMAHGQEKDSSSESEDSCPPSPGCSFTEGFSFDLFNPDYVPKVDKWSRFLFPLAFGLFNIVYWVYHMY

NCCCC(=O)O [GABA, Gamma-amino butyric acid]
Slope (Hill coefficient) [1]: 1.5 ± 0.1 | Slope (Hill coefficient) [2]: 1.6 ± 0.2
